Laboratory results reported in ChEMBL document CHEMBL5252554, “Stereodivergent Hydroxylation of Berkeleylactones by Penicillium turbatum” (J Nat Prod, 2023).
Values after ≈ are worked out from the molar mass of the structure shown.

Tests used:
Staphylococcus aureus = assay: Antibacterial activity against Staphylococcus aureus ATCC 25923 assessed as bacterial growth inhibition measured after 48 hrs by resazurin dye based assay; type: functional
Bacillus subtilis = assay: Antibacterial activity against Bacillus subtilis ATCC 6633 assessed as bacterial growth inhibition measured after 48 hrs by resazurin dye based assay; type: functional
Escherichia coli = assay: Antibacterial activity against Escherichia coli ATCC 25922 assessed as bacterial growth inhibition measured after 48 hrs by resazurin dye based assay; type: functional, organism-based
[1] = Antiproliferative activity against mouse NS-1 cells assessed as cell growth inhibition measured after 72 hrs by resazurin dye based assay; type: functional; conditions: for IC50: NS1, 72 h
Giardia intestinalis = assay: Antiprotozoal activity against Giardia duodenalis 713 assessed as protozoal growth inhibition measured after 96 hrs under anaerobic conditions; type: functional
Saccharomyces cerevisiae = assay: Antifungal activity against Saccharomyces cerevisiae ATCC 9763 assessed as fungal growth inhibition measured after 48 hrs by bromocresol green staining based method; type: functional

Row | Molecule | MIC (Staphylococcus aureus) | MIC (Bacillus subtilis) | IC50 [1] [µM] | further results
1 | GENTAMICIN | 0.8 µM | 0.8 µM |  | MIC (Escherichia coli): 1.7 µM
2 | CO[C@@]12[C@H](COC(N)=O)C3=C(C(=O)C(C)=C(N)C3=O)N1C[C@@H]1N[C@@H]12 [MITOMYCIN] |  |  |  | MIC ([1]; time 72 hrs): 0.93 µM (≈ 0.311 µg/mL)
3 | C[C@@H]1C[C@@H](O)CCCCCCC[C@H](O)[C@H](O)/C=C/C(=O)O1 | 50 µg/mL |  | 32 | LD99 (Giardia intestinalis): 50 µg/mL
4 | C[C@@H]1CCCCCCCCC[C@H](OC(=O)CCC(=O)O)C(=O)/C=C/C(=O)O1 | 0.4 µg/mL |  | 3.1 | 
5 | COC(=O)CCC(=O)O[C@H]1CCCCCCCCC[C@@H](C)OC(=O)/C=C/[C@H]1O | 25 µg/mL | 12.5 µg/mL | 5.9 | 
6 | C[C@@H]1[C@H](O)[C@@H](C)/C=C/C=C/C=C/C=C/C=C/C=C/C=C/[C@H](O[C@@H]2O[C@H](C)[C@@H](O)[C@H](N)[C@@H]2O)C[C@@H]2O[C@](O)(C[C@@H](O)C[C@@H](O)[C@H](O)CC[C@@H](O)C[C@@H](O)CC(=O)O[C@H]1C)C[C@H](O)[C@H]2C(=O)O [AMPHOTERICIN B] |  |  |  | MIC (Saccharomyces cerevisiae): 0.3 µM (≈ 0.277 µg/mL)
